Results reported in patent publication US10092595B2, “Compositions and methods for treating inflammatory arthritis” (priority 2009, dated 2018).
“Also recorded” adds a separate entry of the source. Square brackets hold non-standard residues; d marks the D form. Peptide text beside a SMILES is read from it. * marks the point of attachment. Nva = CCC[C@H](N)C(=O)O; Cbz = O=C(OCc1ccccc1)*; CH2F = FC*

Legend:
[1] = tested on: gp130; experiment: Western blot of gp130 expression in MH7A cells; assay type: cell-based; settings: for effect of pre-incubation with inhibitor on As2O3-induced decrease in gp130: NH4Cl 2.5 mM, MG115 10 μM, Z-VAD-FMK 25 μM, As2O3 5 μM
Description: (§1) Western blot analysis was performed (Pang et al., Gastroenterology, 132:1088-103 (2007)). Cell lysis and protein collection was conducted according to standard protocols. Protein samples (typically 30 μg) were separated by sodium dodecyl sulfate-polyacrylamide gel electrophoresis (SDS-PAGE) in 12% resolving gel and electro-transferred to nitrocellulose membranes (400 mA for 2 hours). After blocking with tris-buffered saline-TWEEN (TBS-T) containing 5% non-fat milk at room temperature for 30 minutes, membranes were incubated with the primary antibody and TBS-T with 5% bovine serum albumin at 4° C. overnight. The membranes were then washed thrice with TBS-T, and incubated for 1 hour at room temperature with 1:2000 horseradish peroxidase-conjugated secondary antibodies (Amersham-Pharmacia Biotechnology, Piscataway, N.J., USA). Immunoreactive bands were detected with chemiluminescence using the SuperSignal West Pico Chemiluminescent Substrate (Pierce Chemical Co., Rockford, Ill., USA), and visualized on X-ray films. Densitometric quantification of band signals was performed using ImageJ 1.36b software (National Institutes of Health, USA). All experiments were performed in triplicates.

[2] = tested on: MH7A cells
Description: Cells were maintained in RPMI1640 (Invitrogen, Carlsbad, Calif., USA) supplemented with 10% heat inactivated fetal bovine serum (FBS; Invitrogen) in 5% CO2 at 37° C.
Cellular proliferation was assessed by an MTT assay (GE Healthcare, Piscataway, N.J., USA) (Cheung et al., Cancer Lett., 246:122-8 (2007)). Cells (2×10^4 cells/well in 96-well plates) were incubated overnight before treatment with controls or reagents for 2-6 days. The treated cells were then incubated with the MTT labeling solution (10 μL/well). After 4 hours of incubation, cells were lyzed, and formazan crystals solubilized overnight at 37° C. Formazean signal was detected at 570 nm (μ-Quant™ microplate spectrometer, Bio-Tek Instruments Inc., VT, USA). Data obtained were analyzed by the KC junior software (BLD Science, Garner, N.C., USA).

[3] = tested on: IL-6 gene; experiment: RT-PCR of IL-6 gene transcription in MH7A cells; assay type: cell-based
Description: (§2) Total RNA was prepared using TRIzol (Invitrogen). Reverse transcription PCR (RT-PCR) was performed (Cheung, et al., Cancer Lett., 246:122-8 (2007)). RNA was reverse transcribed with the Superscript™ III First-Strand Synthesis System (Invitrogen) according to the manufacturer's instructions. Reaction mixes contained 1.2 μL of cDNA, 18 μL of Platinum® PCR Supermix (Invitrogen) and 200 nM of each pair of primers.

[4] = tested on: NFκB; experiment: Western blot of NFκB expression in MH7A cells; assay type: cell-based; settings: dose (24 hours) and time (5 μM) dependence
Description: as §1

[5] = tested on: IL-6 receptor α; experiment: Western blot of IL-6 receptor α expression in MH7A cells; assay type: cell-based
Description: as §1

[6] = tested on: MH7A cells; experiment: Annexin V apoptosis assay (flow cytometry); assay type: cell-based; settings: As2O3 5 μM, representative assay
Description: For apoptosis assay, 1×10^6 cells were incubated in 10-cm plates overnight, before treatment with controls or reagents for 24 hours. Cells were then trypsinized, washed twice with ice-cold phosphate buffered saline (PBS), re-suspended in 500 μL of binding buffer, and incubated on ice for 10 minutes with FITC-conjugated annexin-V and propidium iodide (PI) (Immunotech; Fullerton, Calif., USA). Apoptotic cells (annexin-V-positive, PI-negative) were enumerated by flow cytometry in triplicates (Epics, Beckman Coulter, Fullerton, Calif., USA) after appropriate color compensation. Data analysis was performed by the WinMDI 2.8 software (The Scripps Research Institute, La Jolla, Calif., USA).

[7] = oral As2O3; cited from earlier work
[8] = tested on: p53; experiment: Western blot of p53 phosphorylation at serine 46 in MH7A cells; assay type: cell-based; settings: 5 μM As2O3
[9] = tested on: IL-6 receptor α gene; experiment: RT-PCR of IL-6 receptor α gene transcription in MH7A cells; assay type: cell-based; settings: semi-quantitative RT-PCR
Description: as §2

[10] = tested on: caspase 3; experiment: Western blot of caspase 3 activation in MH7A cells; assay type: cell-based
Description: as §1

[11] = tested on: MH7A cells; experiment: Cell cycle analysis by PI staining and flow cytometry; assay type: cell-based; settings: 5 μM As2O3, 24 hours
Description: Cell cycle analysis was performed as described (Pang et al., J. Pathol. 210:19-25, (2006)), Cells were trypsinized, washed twice with ice-cold PBS, re-suspended in 500 μL PBS, and stained with PI for 10 minutes on ice (DNA Prep™, Beckman Coulter). Cell cycle was determined by flow cytometry, and data analyzed by the WinMDI 2.8 software.

[12] = tested on: GP130 gene; experiment: RT-PCR and Q-PCR of gp130 gene transcription in MH7A cells; assay type: cell-based
Description: as §2
Quantitative-RT-PCR (Q-PCR) for GP130 was performed with the Assays-on-Demand™ Gene Expression System (AssayID: Hs00174360_m1, PE Biosystems, Foster City, Calif., USA) according to the manufacturer's instructions. The reaction mix contained 2 μL of cDNA, 10 μL of TaqMan® Universal PCR Master Mix, 1 μL of Assay-on-Demand™ Gene Expression Assay Mix, and RNase-free water to a volume of 20 μL. Q-PCR was performed with the ABI Prism 7700 Sequence Detector (PE Biosystems). […] Real-time PCR amplification data were collected continuously and analyzed with the ABI Prism 7700 Sequence Detector. Relative gene expression to the control calibrator, and normalized to the internal control, was calculated by the ΔΔCT method (ABI user bulletin number 2, PE Biosystem) (Cheung, et al., Cancer Lett., 246:122-8 (2007)). […]

[13] = oral As2O3; cited from earlier work; remark: listed apart in the source
[14] = tested on: JNK; experiment: Western blot of JNK phosphorylation in MH7A cells; assay type: cell-based
Description: as §1

[15] = tested on: gp130; experiment: Immunoprecipitation of gp130 and Western blot with anti-ubiquitin antibodies FK1 and FK2; assay type: cell-based; settings: 100 μM As2O3, 0, 4 or 6 hours; FK2 positive, FK1 negative
Description: Immunoblot analysis was performed with gp130 ubiquitinylation. MH7A cells are incubated with 100 μM As2O3 for 0, 4 or 6 hours. Antibody to gp130 is used for immunoprecipitation (IP) of total cell lysates, followed by Western blot analysis with anti-ubiquitin antibodies FK1 and FK2. IP with non-immune rabbit serum (NIS) serves as control.
Immunoprecipitation was performed by standard procedures (Pang et al., Gastroenterology, 132:1088-103 (2007)). Cells were washed with ice-cold PBS supplemented with 1 mM sodium orthovanadate and Complete protease inhibitor cocktail (Complete; Roche Molecular Biochemicals), and lysed with buffer (50 mM Tris-HCl, pH: 7.5, 100 mM NaCl, 1% Triton X-100, 4 μg/mL aprotinin, 100 μM phenylmethylsulfonyl fluoride, 200 μM sodium orthovanadate, 2 μg/mL leupeptin, 1 mM ditheiothreitol, and 1× Complete) at 4° C. for 15 minutes. Lysates were collected and centrifuged. Proteins were assayed (Bio-Rad Protein Assay Kit, Philadelphia, Pa., USA), and adjusted to 1 μg/μL (typically 800 to 1000 μg). Immunoprecipitation was preformed by incubating protein samples with the appropriate antibodies (typically 4 μg) or control non-immune sera at 4° C. overnight with gentle shaking. […] The immunoprecipitates were then analyzed by Western blotting in triplicates

[16] = RA patients; cited from earlier work

CCC[C@@H](C=O)NC(=O)[C@H](CC(C)C)NC(=O)[C@H](CC(C)C)NC(=O)OCc1ccccc1 [MG115] (Cbz-Leu-Leu-[Nva]-aldehyde)
effect of pre-incubation with inhibitor on As2O3-induced decrease in gp130 [1]: had no effect

COC(=O)C[C@H](NC(=O)[C@H](C)NC(=O)[C@@H](NC(=O)OCc1ccccc1)C(C)C)C(=O)CF [Z-VAD-FMK] (Cbz-Val-Ala-Asp(OMe)-CH2F)
effect of pre-incubation with inhibitor on As2O3-induced decrease in gp130 [1]: had no effect

Arsenic trioxide [As2O3]
inhibition of growth of MH7A cells ([2]; increasing concentrations, 24, 48 or 72 hours): dose and time dependent inhibition of growth
IC50 ([2]; read-out: 50% inhibitory concentration, growth of MH7A cells, MTT assay, 24, 48 or 72 hours): ~5 µM
IL-6 gene transcription [3]: did not affect IL-6 gene transcription
level of NFκB [4]: significantly decreased the level of NFκB
IL-6 receptor α protein level [5]: remaining unchanged
annexin-V positive, propidium iodide negative (apoptotic) cells [6]: 38.2%
annexin-V positive, propidium iodide positive (dead) cells [6]: 5.76%
QT prolongation [7]: minimal QT prolongation
gp130 protein level ([1]; Western blot): dose and time dependent decrease of gp130
p53 phosphorylation at serine 46 [8]: significantly increased p53 phosphorylation at serine 46
IL-6 receptor α gene transcription [9]: no effect on the transcription of both genes
activation of caspase 3 [10]: dose and time dependent activation of caspase 3
cell cycle arrest [11]: significant G2M arrest
GP130 gene transcription ([12]; real-time quantitative PCR, 5 μM As2O3, 0-24 hours): no effect on GP130 gene transcription
gp130 gene transcription ([12]; semi-quantitative RT-PCR): no effect on the transcription of both genes
efficacy in relapsed acute promyelocytic leukemia [13]: highly efficacious
JNK phosphorylation ([14]; 5 μM As2O3, 0-24 hours): significant increases in JNK phosphorylation
gp130 ubiquitination [15]: induced mono-ubiquitination of gp130; also recorded: gp130 is mono-ubiquitinated

Cl.N [NH4Cl, ammonium chloride]
effect of pre-incubation with inhibitor on As2O3-induced decrease in gp130 [1]: significantly prevented
effect of inhibitor on As2O3-induced JNK phosphorylation/activation ([14]; SP600125 30 μM, NH4Cl 2.5 mM): almost totally abrogated

tocilizumab
clinical effect in RA [16]: significant control of symptoms

infliximab
clinical effect in RA [16]: significant improvement in joint inflammation and halts the progression of joint damage

IL-6: recombinant human IL-6 (Peprotech)
effect of exogenous IL-6 on proliferation of MH7A cells ([2]; 72 hours): did not increase the proliferation
